Assay: Human HepG2 cell viability assay in 384 well format
Type: toxicity, cell-based
Set-up: dose 125 nL, time 70.5 hour; cytotoxicity at 70.5 h: concentration not given beside the values
Details: HepG2 cells, read-out: Inhibition

| SMILES | cytotoxicity at 70.5 h [%] |
| --- | --- |
| CCCC(=O)N(CCN1CCOCC1)c1nc2c(OC)ccc(C)c2s1 | -7.03 |
| Cc1c(C)n2c(SCC(=O)N3CCC(C)CC3)nnc2[nH]c1=O | -4.99 |
| Cc1c(C)n2c(SCC(=O)N3CCCC3)nnc2[nH]c1=O | -7.34 |
| O=C(Nc1cc(C(F)(F)F)ccc1Cl)c1ccc(N2CCCC2)nn1 | 19.7 |
| O=C(NCc1ccc2c(c1)OCO2)c1ccc(N2CCCCC2)nn1 | 12.8 |
| O=C(Nc1ccc(Br)cc1F)c1ccc(N2CCOCC2)nn1 | -6.45 |
| COCCn1/c(=N/C(=O)C(C)C)sc2cc(Cl)ccc21 | 21.1 |
| CCSc1nc(N)c(NC(=O)c2ccc(C)cc2)c(=O)[nH]1 | 10.5 |
| O=C(O)c1ccc(N2CCC(Cc3ccccc3)CC2)nn1 | -1.14 |
| Cc1nc(-n2nc(-c3cccs3)cc2N)[nH]c(=O)c1C | -4.91 |
| CCCc1cc(=O)[nH]c(-n2nc(-c3cccs3)cc2N)n1 | -12.8 |
| CC1CCN(C(=O)CSc2nc3c(cnn3CCO)c(=O)[nH]2)CC1 | 22.7 |
| O=C(CSc1nc2c(cnn2CCO)c(=O)[nH]1)NC1CCCCC1 | 14.1 |
| CC(C)NC(=O)CSc1nc2c(cnn2CCO)c(=O)[nH]1 | 26.7 |
| NC(=O)Cn1c(CO)cnc1SCC(=O)NCc1ccccc1Cl | 15.7 |
| CCS(=O)(=O)Nc1ccc2c(c1)OCC(C)(C)C(=O)N2C | 19 |
| O=C(c1ccccc1F)N1CCN(c2ccc(-n3cccn3)nn2)CC1 | 0.31 |
| CCc1cc(=O)[nH]c2nnc(SCC(=O)N3CCC(C)CC3)n12 | 19.7 |
| Cc1cc(C(=O)N2CCN(c3nc4c(C)cccc4s3)CC2)no1 | 9.18 |
| COc1ccc(CNc2c(C)cnc3c2c(=O)n(C)c(=O)n3C)cc1 | 7.6 |
| CCc1cnc2c(c1Nc1ccccc1OC)c(=O)n(C)c(=O)n2C | 5.02 |
| CCc1cnc2c(c1Nc1cccc(OC)c1)c(=O)n(C)c(=O)n2C | 1.18 |
| CCc1cnc2c(c1Nc1ccc(C)c(F)c1)c(=O)n(C)c(=O)n2C | -8.17 |

| SMILES | cytotoxicity at 70.5 h [%] |
| --- | --- |
| CC(C)c1nn(CC(=O)N2CCCC2)c(=O)c2c1cnn2C(C)(C)C | 14.2 |
| CCN(CC)C(=O)Cn1nc(C(C)C)c2cnn(C(C)(C)C)c2c1=O | 13.7 |
| COCCNC(=O)Cn1cc(OCc2ccc(F)cc2)c(=O)cc1C | 9.56 |
| COCCNC(=O)Cn1cc(OCc2ccccc2F)c(=O)cc1CO | 45.6 |
| Cc1cnc2n(c1=O)C(CC(=O)NCc1ccc(F)cc1)CS2 (configuration not stated) | -6.08 |
| Cc1cnc2n(c1=O)C(CC(=O)NCc1cccs1)CS2 (configuration not stated) | 0.951 |
| COc1cccc(CNC(=O)CC2CSc3nc(C)c(C)c(=O)n32)c1 (configuration not stated) | -2.74 |
| CCCc1cc(=O)[nH]c2nnc(SCC(=O)OC)n12 | -8.96 |
| CCCc1cc(=O)[nH]c2nnc(SCC(=O)OCC)n12 | -9.96 |
| Cc1ccccc1-n1ncc2c(=O)n(CCN3CCCCC3)cnc21 | 21 |
| CCc1cc(=O)[nH]c(SCc2ccccn2)n1 | -5.73 |
| Cc1cc(C)nc(NC(=O)NCCCSc2nncn2C)n1 | -8.45 |
| Cc1cc(NC(=O)NCCCSc2nncn2C)no1 | -11.7 |
| COc1cn(CC(N)=O)c(CSc2nc(C)cc(C)n2)cc1=O | 59.2 |
| O=c1nc(SCc2cccnc2)c2c(n1CCO)CCCC2 | -11 |
| O=S(=O)(c1cccs1)N1CCC(c2nc(-c3cccs3)no2)CC1 | 1.6 |
| CCCN1CCc2nc(SCc3c(C)cc(C)cc3C)[nH]c(=O)c2C1 | 4.68 |
| Cc1nn(CCNS(=O)(=O)c2ccccc2)c(C)c1Cl | -7.1 |
| CC(=O)c1c(C)nn(CC(=O)Nc2ccc(F)cc2)c1C | 30 |
| CCCS(=O)(=O)c1ccc(N2CCN(Cc3ccccc3)CC2)nn1 | -8.4 |
| CCN(CC)c1nc2ccsc2c(=O)n1CCC(=O)NC1CCCC1 | -6.51 |
| Cc1ccc(NC(=O)Cn2ncc(SCC(N)=O)c(Cl)c2=O)c(F)c1 | -17.2 |
| CC(C)OC(=O)CN1N=C(C(=O)N2CCCC2)S(=O)(=O)c2ccccc21 | 1.63 |

| SMILES | cytotoxicity at 70.5 h [%] |
| --- | --- |
| CCOc1ccc(CNC(=O)c2cnc(OC)nc2)cc1 | -2.49 |
| CC(C)CCn1nc2ccc(S(=O)(=O)N3CCOCC3)cn2c1=O | -7.21 |
| O=c1c(S(=O)(=O)N2CCCC2)cccn1Cc1ccc(F)cc1Cl | 31.5 |
| CC(C)(C)OC(=O)Cn1cccc(S(=O)(=O)N2CCCCCC2)c1=O | -12.4 |
| O=c1[nH]c2c(-c3ccccn3)nsc2c(=O)n1CC1CC1 | -14.6 |
| CC1CCN(c2cc(-n3cnc(C(=O)N4CCSCC4)c3)ncn2)CC1 | -13.5 |
| CC1CCN(C(=O)c2cn(-c3cc(N4CCOCC4)ncn3)cn2)CC1 | -14 |
| COc1cccc(C(O)CN2CCN(c3cccc(C)c3)CC2)c1 (configuration not stated) | 0.851 |
| Cc1ccccc1-c1csc2c(=O)[nH]c(N3CCCC(C(=O)O)C3)nc12 (configuration not stated) | 14.6 |
| O=C(Cc1cc(-c2ccc3c(c2)OCO3)on1)NC1CCCC1 | -8.33 |
| Cc1cc(C(=O)N2CCN(c3nc4c(C(C)C)cccc4s3)CC2)on1 | 32 |
| CCOc1nn(CC)cc1-c1nnc(SCC)n1C | -12.3 |
| CCOCCSc1nnc(-c2cn(CC)nc2OCC)n1C | -7.58 |
| CCn1nnc2c1CCN(C(=O)c1ccc3c(c1)OCO3)C2COC (configuration not stated) | 10.7 |
| CN(C)C(=O)c1ccn(-c2ccc3ccccn23)n1 | -4.81 |
| COCCN1CCC2(CCCN(c3ncc(F)cn3)C2)C1 (configuration not stated) | -3.02 |
| CC(C)CNC(=O)N1CCOC2(CCNCC2)C1 | -3.81 |
| O=c1cc(CN2CCCC2)nc2n1CCCN(Cc1ccco1)C2 | -2.44 |
| O=C(c1nc2c(s1)CCCN2CC1CC1)N1CCOCC1 | 4.5 |
| COCCn1cc(-c2cc(C(=O)N3CCCC3)c3ccccn23)nc1C | -0.704 |
| CS(=O)(=O)N1CCOC2(CCCN(c3ncc(F)cn3)C2)C1 (configuration not stated) | -2.76 |
| O=C(N1CCCC1)N1CCC2(CC(=O)N(c3ccc4c(c3)OCO4)C2)C1 (configuration not stated) | -2.04 |
| OCCN1CCOC2(CCCN(c3ncccn3)C2)C1 (configuration not stated) | -2.47 |

| SMILES | cytotoxicity at 70.5 h [%] |
| --- | --- |
| O=C(c1ccno1)N1CCC2(CC(=O)N(c3ccc4c(c3)OCO4)C2)C1 (configuration not stated) | -0.613 |
| Cc1nc(NC(C)C)nc2c1CN(Cc1nccn1C)CC2 | 0.21 |
| O=C(c1nc2c(s1)CCCN2CC1CC1)N1CCCC1 | -0.67 |
| Cc1cccc(CO[C@H]2CO[C@@]3(CCN(S(=O)(=O)N(C)C)C3)C2)n1 | 15.2 |
| CC(C)N(C)Cc1noc2c1CN(C(=O)c1cnccn1)CC2 | -1.15 |
| COCCC(=O)N1CC[C@H]2C(=O)N(c3ccsc3)CCO[C@H]2C1 | -1.99 |
| CCNC(=O)CC1CC2(CCN(C(C)=O)CC2)c2cc(F)ccc21 (configuration not stated) | -5.07 |
| c1ccc(-c2noc(CCCN3CCCC3Cn3cncn3)n2)cc1 (configuration not stated) | -13.4 |
| COc1cccc2cc(CNCc3ccnc(N(C)C)c3)oc12 | 7.6 |
| CC(c1nc(C(C)(C)C)no1)N1CCN(Cc2ccc(C#N)cc2)CC1 (configuration not stated) | -1.19 |
| Cn1cnc(S(=O)(=O)NCCCN2CCCC2=O)c1Cl | -2.39 |
| Cn1cnc(S(=O)(=O)NCCCN2CCCCCC2=O)c1Cl | 0.779 |
| COc1ccc(OC)c(CNCc2ccnc(N3CCOCC3)c2)c1 | -4.43 |
| Cn1ncc2c(N3CCCN(C(=O)c4ccsc4)CC3)ncnc21 | -1.19 |
| Cn1ccc(C(=O)N2CCN(c3ccccn3)CC2)cc1=O | -1.81 |
| CCCC(=O)N(CCCN1CCOCC1)c1nc2c(F)cccc2s1 | -1.9 |
| CCCC(=O)N(CCCN1CCOCC1)c1nc2c(C)c(C)ccc2s1 | -14.7 |
| O=C(CSc1nnc(N2CCNCC2)s1)Nc1ccccc1 | 27.6 |
| CN(C)C(=O)CN1C(=O)CO[C@@H]2CN(c3ccccn3)C[C@H]21 | -7.96 |
| CC(C)NCC1OCCc2cn(C)nc21 (configuration not stated) | -6.64 |
| CCn1ncc2c1C(COC)N(C(=O)c1ccc3c(c1)OCO3)CC2 (configuration not stated) | -5.04 |
| CNC(=O)CN1CCO[C@H]2CN(C(=O)C3CC3)C[C@H]21 | -2.66 |
| COCCN1CCC2(C1)CN(c1ncccn1)C2 | -0.0538 |

| SMILES | cytotoxicity at 70.5 h [%] |
| --- | --- |
| Cc1ccc(NC(=O)c2nc3c(s2)CCCN3C(=O)C2CC2)cn1 | 3.07 |
| COCCN1CCO[C@@H]2CN(C(=O)Cc3ccc(F)cc3)CC[C@@H]2C1 | 4.68 |
| CC(=O)N1CCO[C@@H]2CN(C(=O)NCc3cccnc3)CC[C@@H]2C1 | -2.08 |
| CN(C)C[C@H]1OC[C@@H]2CN(C(=O)NCc3cccc(F)c3)CC[C@@H]21 | -5.06 |
| COCC(=O)NCC1Cn2nnc(-c3ccncc3)c2CO1 (configuration not stated) | -3.5 |
| CC(C)Nc1nc2c(c(NC3CC3)n1)CCN(Cc1nccn1C)CC2 | -1.1 |
| O=C1[C@H]2CN(C3CCOC3)C[C@H]2CN1c1ccccc1 (some centres not stated) | -1.16 |
| O=C(NCC1COCc2c(-c3ccncc3)nnn2C1)[C@H]1CCCO1 (some centres not stated) | -0.723 |
| CN(C)S(=O)(=O)N1CC[C@]2(C[C@H](OCc3ccccn3)CO2)C1 | -0.384 |
| O=C(CO)N1CCOC2(CCCN(c3ncc(F)cn3)C2)C1 (configuration not stated) | -0.965 |
| CN(C)S(=O)(=O)N1CC[C@]2(C[C@@H](OCc3ccccn3)CO2)C1 | -1.04 |
| CCS(=O)(=O)N1CCC2(CCN(Cc3nccs3)CC2)CC1 | 15.2 |
| O=C(c1ccsc1)N1CCc2onc(COc3ccccn3)c2C1 | -1.49 |
| CCOCC(=O)N1CCC2(CC1)COCCN2CCOC | -1.68 |
| N#Cc1cccc(CN2CC[C@@H]3CO[C@@H](CN4CCCC4)[C@@H]3C2)c1 | -4.24 |
| CN(C)CCOCc1nnc2n1CCN(Cc1ccco1)C2 | -1.46 |
| CNC(=O)CN1CCO[C@H]2CN(CC3CC3)C[C@H]21 | -2.3 |
| O=c1ccc2c(n1Cc1cccnc1)CCN(CC1CCOC1)CC2 (configuration not stated) | -4.17 |
| c1cncc(-c2ccc3c(c2)CCC32CCN(Cc3ccco3)CC2)c1 | -0.391 |
| Cc1cc(C)c(N(CC(O)CNCc2ccco2)S(C)(=O)=O)c(C)c1 (configuration not stated) | -7.18 |
